The source of these data is US20120022045A1, “BRIDGED COMPOUNDS AS HIV INTEGRASE INHIBITORS” (priority 2009, published 2012).

Broadly, the IC50 is the concentration needed to halve the response being measured. By IC95 is commonly meant the concentration at which the effect reaches the 95% level.

Where two headings read alike, the source gives them in different places.

The subject of experiment [1] is HIV-1 integrase mutant virus Y143R. The experiment can be described thus: Single cycle infectivity assay in HeLa P4-2 cells, integrase mutant Y143R virus. Format: cell-based. Particulars: fold shift in IC50 versus wild type IIIB. A digest of the protocol: (§1)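 HeLa P4-2 cells used in a single-cycle acute HIV-1 infection assay. Wild-type IIIB or integrase mutant viruses made by site-directed mutagenesis of proviral plasmids and produced by transfection of 293T cells.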

The subject of experiment [2] is HIV-1 wild type IIIB. The experiment can be described thus: Single cycle infectivity assay in HeLa P4-2 cells, wild type virus. Format: cell-based. A digest of the protocol:
as §1

For experiment [3], the system named is HIV-1 integrase mutant virus Q148R. The experiment can be described thus: Single cycle infectivity assay in HeLa P4-2 cells, integrase mutant Q148R virus. The format is cell-based. The following applies: fold shift in IC50 versus wild type IIIB. A digest of the protocol: as §1
In experiment [4] the test system is HIV-1. Nature of the experiment: Inhibition of acute HIV-1 infection of T-lymphoid cells (spread assay). The format is cell-based. The following applies: 10% FBS, read-out: IC95 (nM) in the presence of 10% FBS. As to the method: Assays for the inhibition of acute HIV-1 infection of T-lymphoid cells were conducted in accordance with Vacca, J. P. et al., Proc. Natl. Acad. Sci. USA 1994, 91: 4096.

The subject of experiment [5] is HIV-1 integrase mutant virus G140S/Q148H. Nature of the experiment: Single cycle infectivity assay in HeLa P4-2 cells, integrase mutant G140S/Q148H virus. The following applies: fold shift in IC50 versus wild type IIIB. The format is cell-based. A digest of the protocol:
as §1

The target in experiment [6] is T1, HIV-1 integrase (Human immunodeficiency virus type 1 group M subtype B, UniProt P04585).
T1 construct: strand transfer activity of HIV-1 integrase
The experiment can be described thus: HIV integrase assay: strand transfer catalyzed by recombinant integrase. The format is biochemical. Particulars: strand transfer activity. As to the method:
Assays for the strand transfer activity of HIV-1 integrase were conducted in accordance with WO 02/30930 for recombinant integrase.
Further description on conducting the assay using preassembled complexes is found in Wolfe, A. L. et al., J. Virol. 1996, 70: 1424-1432, Hazuda et al., J. Virol. 1997, 71: 7005-7011; Hazuda et al., Drug Design and Discovery 1997, 15: 17-24; and Hazuda et al., Science 2000, 287: 646-650.

Experiment [7] has as its system HIV-1 integrase mutant virus N155H. The experiment can be described thus: Single cycle infectivity assay in HeLa P4-2 cells, integrase mutant N155H virus. Format: cell-based. The following applies: fold shift in IC50 versus wild type IIIB. A digest of the protocol: as §1
Where [8] appears, read: Human immunodeficiency virus 1, T-lymphoid.
The mark [9] stands for this setting: Human immunodeficiency virus 1, IIIB, HeLaP4-2, wild type IIIB.

As for `CN(C)C(=O)C(=O)N(C)C12CCC(Cn3c1nc(C(=O)NCc1ccc(F)cc1)c(O)c3=O)OC2` (single isomer, unassigned) [Example 10A, N-(4-{[(4-fluorobenzyl)amino]carbonyl}-5-hydroxy-6-oxo-10-oxa-3,7-diazatricyclo[7.2.2.0^2,7]trideca-2,4-dien-1-yl)-N′,N′N′-trimethylethanediamide], in experiment [1], the “Y143R (shift)” value is on record as 1 fold. Besides, the results for the IC50 in experiment [2] (wild type IIIB) and in experiment [6] were 221 nM and 5 nM, respectively. Moreover, the “Q148R (shift)” value in experiment [3] is reported as 4 fold. Besides, the IC95 in experiment [4] is 9.0 nM. Besides, the “G140S/Q148H (shift)” value in experiment [5] is recorded as 26 fold. In addition, the “N155H (shift)” value in experiment [7] is on record as 5 fold.
Turning to `CN(C)C(=O)C(=O)N(C)C12CCC(Cn3c1nc(C(=O)NCc1ccc(F)cc1)c(O)c3=O)OC2` (single isomer, unassigned) [Example 10B, N-(4-{[(4-Fluorobenzyl)amino]carbonyl}-5-hydroxy-6-oxo-10-oxa-3,7-diazatricyclo[7.2.2.0^2,7]trideca-2,4-dien-1-yl)-N′,N′,N′-trimethylethanediamide], in experiment [1], the “Y143R (shift)” value came out at 6 fold. Also, the IC50 in experiment [2] (wild type IIIB) is 30 nM; in experiment [6] it was 14 nM. The “Q148R (shift)” value in experiment [3] was 22 fold. For the same compound, the 95% effect concentration (IC95) in experiment [4] came out at 15 nM. Moreover, the “G140S/Q148H (shift)” value in experiment [5] stood at 12 fold. Besides, the “N155H (shift)” value in experiment [7] is 18 fold.
For `Cc1cc(CNC(=O)c2nc3n(c(=O)c2O)CC2CCC3(N(C)C(=O)C(=O)N(C)C)CO2)ccc1F` (single isomer, unassigned) [Example 11A], the “Y143R (shift)” value in experiment [1] is 2 fold. Further, the IC50 in experiment [2] (wild type IIIB) came to 21 nM; in experiment [6] it was 37 nM. Also, the “Q148R (shift)” value in experiment [3] is 8 fold. In addition, the concentration for an effect of 95% (IC95) in experiment [4] is on record as 17 nM. In addition, the “G140S/Q148H (shift)” value in experiment [5] was more than 79 fold. Also, the “N155H (shift)” value in experiment [7] is recorded as 10 fold.
For `Cc1cc(CNC(=O)c2nc3n(c(=O)c2O)CC2CCC3(N(C)C(=O)C(=O)N(C)C)CO2)ccc1F` (single isomer, unassigned) [Example 11B], the “Y143R (shift)” value in experiment [1] is 1 fold. Moreover, the half-inhibitory concentration (IC50) was 112 nM in experiment [2] (wild type IIIB) and 14 nM in experiment [6]. Besides, the “Q148R (shift)” value in experiment [3] was 2 fold. The IC95 in experiment [4] was 7.8 nM. The “G140S/Q148H (shift)” value in experiment [5] was found to be 14 fold. Moreover, the “N155H (shift)” value in experiment [7] is reported as 5 fold.
On to `CCN(C(=O)C(=O)N(C)C)C12CCC(Cn3c1nc(C(=O)NCc1ccc(F)cc1)c(O)c3=O)OC2` (single isomer, unassigned) [Example 12A, N-Ethyl-N-(4-{[(4-fluorobenzyl)amino]carbonyl}-5-hydroxy-6-oxo-10-oxa-3,7-diazatricyclo[7.2.2.0^2,7]trideca-2,4-dien-1-yl)-N′,N′-dimethylethanediamide], for which the “Y143R (shift)” value in experiment [1] came out at 2 fold. Moreover, the concentration for half-maximal inhibition (IC50) in experiment [2] (wild type IIIB) stood at 23 nM; in experiment [6] it was 11 nM. Moreover, in experiment [3], the “Q148R (shift)” value is on record as 7 fold. In addition, in experiment [4] (setting [8]), the IC95 stood at 11 nM. Besides, in experiment [5], the “G140S/Q148H (shift)” value turned out to be 112 fold. Besides, in experiment [7], the “N155H (shift)” value stood at 6 fold.
For `CCN(C(=O)C(=O)N(C)C)C12CCC(Cn3c1nc(C(=O)NCc1ccc(F)cc1)c(O)c3=O)OC2` (single isomer, unassigned) [Example 12B, N-Ethyl-N-(4-{[(4-fluorobenzyl)amino]carbonyl}-5-hydroxy-6-oxo-10-oxa-3,7-diazatricyclo[7.2.2.0^2,7]trideca-2,4-dien-1-yl)-N′,N′-dimethylethanediamide], the “Y143R (shift)” value in experiment [1] amounted to 7 fold. Besides, the results for the 50% inhibitory concentration (IC50) in experiment [2] (wild type IIIB) and in experiment [6] were 7 nM and 18 nM, respectively. For the same compound, in experiment [3], the “Q148R (shift)” value is 32 fold. Moreover, the IC95 in experiment [4] is 19 nM. In experiment [5], the “G140S/Q148H (shift)” value is reported as 240 fold. Moreover, the “N155H (shift)” value in experiment [7] is on record as 56 fold.
Turning to `CC1C2CCC(N(C)C(=O)C(=O)N(C)C)(CC2)c2nc(C(=O)NCc3ccc(F)cc3)c(O)c(=O)n21` (single isomer, unassigned) [Example 13A, N-(4-{[(4-fluorobenzyl)amino]carbonyl}-5-hydroxy-8-methyl-6-oxo-3,7-diazatricyclo[7.2.2.0^2,7]trideca-2,4-dien-1-yl)-N′,N′,N″-trimethylethanediamide], in experiment [1], the “Y143R (shift)” value worked out at 2 fold. For the same compound, the IC50 in experiment [2] (setting [9]) is 7 nM; in experiment [6] it was 13 nM. In addition, in experiment [3], the “Q148R (shift)” value was determined as 1 fold. Also, the concentration for an effect of 95% (IC95) in experiment [4] is reported as 8.6 nM. Moreover, the “G140S/Q148H (shift)” value in experiment [5] worked out at 2 fold. In experiment [7], the “N155H (shift)” value stood at 2 fold.
For `CCN(C(=O)C(=O)N(C)C)C12CCC(OC)(CC1)Cn1c2nc(C(=O)NCc2ccc(F)cc2)c(O)c1=O` [Example 16, N-Ethyl-N-(4-{[(4-fluorobenzyl)amino]carbonyl}-5-hydroxy-9-methoxy-6-oxo-3,7-diazatricyclo[7.2.2.0^2,7]trideca-2,4-dien-1-yl)-N,N′-dimethylethanediamide], the “Y143R (shift)” value in experiment [1] was found to be 1 fold. For the same compound, it took 15 nM to reach half-maximal inhibition in experiment [2] (setting [9]) (IC50). Also, in experiment [3], the “Q148R (shift)” value stood at 1 fold. Moreover, the IC95 in experiment [4] (setting [8]) came out at 11.3 nM. Further, the “G140S/Q148H (shift)” value in experiment [5] is reported as 15 fold. For the same compound, the “N155H (shift)” value in experiment [7] is 3 fold.
With `CN(C)C(=O)C(=O)N(C)C12CCC(O)(CC1)Cn1c2nc(C(=O)NCc2ccc(F)cc2)c(O)c1=O` [Example 17, N-(4-{[(4-Fluorobenzyl)amino]carbonyl}-5,9-dihydroxy-6-oxo-3,7-diazatricyclo[7.2.2.0^2,7]trideca-2,4-dien-1-yl)-N,N′,N′-trimethylethanediamide], the “Y143R (shift)” value in experiment [1] was found to be 1 fold. The half-maximal inhibitory concentration (IC50) in experiment [2] (setting [9]) amounted to 46 nM. Further, in experiment [3], the “Q148R (shift)” value is 3 fold. Besides, the 95% effect concentration (IC95) in experiment [4] (setting [8]) was 20.5 nM. In addition, the “G140S/Q148H (shift)” value in experiment [5] was 38 fold. Besides, in experiment [7], the “N155H (shift)” value is reported as 3 fold.
In the case of `CCN(C(=O)C(=O)N(C)C)C12CCC(Cn3c1nc(C(=O)NCc1ccc(F)c(C)c1)c(O)c3=O)OC2` (stereo not shown) [Example 18A, N-ethyl-N-(4-{[(4-fluoro-3-methylbenzyl)amino]carbonyl}-5-hydroxy-6-oxo-10-oxa-3,7-diazatricyclo[7.2.2.0^2,7]trideca-2,4-dien-1-yl)-N,N-dimethylethanediamide], the “Y143R (shift)” value in experiment [1] amounted to 2 fold. In experiment [2] (setting [9]), this compound returned an IC50 of 19 nM. In addition, the “Q148R (shift)” value in experiment [3] was found to be 7 fold. For the same compound, in experiment [4] (setting [8]), the IC95 was 9.8 nM. In addition, the “G140S/Q148H (shift)” value in experiment [5] was more than 88 fold. In addition, in experiment [7], the “N155H (shift)” value came out at 8 fold.
On to `CCCN(C(=O)C(=O)N(C)C)C12CCC(Cn3c1nc(C(=O)NCc1ccc(F)cc1)c(O)c3=O)OC2` (stereo not shown) [Example 19, N-(4-{[(4-fluorolbenzyl)amino]carbonyl}-5-hydroxy-6-oxo-10-oxa-3,7-diazatricyclo[7.2.2.0^2,7]trideca-2,4-dien-1-yl)-N′,N′-dimethyl-N-propylethanediamide], for which the “Y143R (shift)” value in experiment [1] is on record as 7 fold. For the same compound, it took 8 nM to reach half-maximal inhibition in experiment [2] (setting [9]) (IC50). Further, the “Q148R (shift)” value in experiment [3] is recorded as 59 fold. Further, in experiment [4] (setting [8]), the IC95 amounted to 15.9 nM. Besides, the “G140S/Q148H (shift)” value in experiment [5] is listed as more than 209 fold. Besides, in experiment [7], the “N155H (shift)” value came to 45 fold.
For `CN(C)C(=O)C(=O)N(C)C12CCC(CC1)n1c2nc(C(=O)NCc2ccc(F)cc2)c(O)c1=O` [Example 30], the “Y143R (shift)” value in experiment [1] worked out at 3 fold. The compound further yielded a concentration for half-maximal inhibition (IC50) in experiment [2] (setting [9]) of 17 nM. In addition, in experiment [3], the “Q148R (shift)” value worked out at 9 fold. For the same compound, the 95% effect concentration (IC95) in experiment [4] (setting [8]) was 22.4 nM. Moreover, the “G140S/Q148H (shift)” value in experiment [5] is listed as 32 fold. In addition, the “N155H (shift)” value in experiment [7] is given as 7 fold.
